{
  "source": "patent US20240366648A1",
  "about": "“NAD-AUGMENTATION THERAPY FOR PARKINSON'S DISEASE” (Vestlandets Innovasjonsselskap AS (VIS), priority 2021, published 2024)",
  "key": {"[1]": {"system": "mice", "settings": "Xie et al. 2019; cited from earlier work"}, "[2]": {"system": "patients with PD", "assay": "Safety, adverse events and compliance, phase I trial", "format": "in vivo", "description": "Thirty PD patients were randomly assigned (Block size 6, allocation 1:1) to 500 mg NR, provided in the form of nicotinamide riboside chloride (Niagen® from Chromadex), or placebo twice per day, 12 hours apart, using the electronic Case Report Form (Viedoc.com). The drug containers were sequentially marked by an independent third party. The NR (Niagen®) and placebo were provided by ChromaDex, USA. Each NR capsule contained 250 mg of NR. Placebo capsules contained microcrystalline cellulose. The vials and capsules containing NR and placebo were identical in shape, colour, and smell. Study drug compliance was calculated from counting returned number of study capsules and self-reporting. Participants, examining physicians, medical- and research personnel were blinded for the duration of the trial. Sample size was determined by comparing previous literature with respect to the primary objective.\nAt screening for trial entry, candidates underwent physical and neurological examination, brain MRI, and DaTscan. Eligible patients who entered the trial were assessed at baseline (visit 1, V1) and after four weeks of exposure to either NR or placebo (visit 2, V2). At both visits, patients underwent physical and neurological examination, including assessment by the Movement Disorder Society Unified Parkinson's Disease Rating Scale section I-IV (MDS-UPDRS), and biological sampling. MR-PET was performed within one week prior to visit 1, and at visit 2. All participants remained naïve for antiparkinson drugs for the duration of the trial. All clinical assessments were performed by a blinded movement disorders expert. Each patient was examined by the same neurologist at both visits. Methodological details on each procedure are provided below. Safety was monitored through routine clinical blood tests and registration of adverse events. Adverse events (AE) were recorded and scored by the investigative physician. Severity was scored according to severity grading defined by Common Terminology Criteria for Adverse Events v5.0 (CTCAE) as (1) mild, (2) moderate, (3) severe, (4) life-threatening or (5) death. The AE relation to the study drug was scored as (1) unrelated, (2) unlikely, (3) possible, (4) probable or (5) definitely."}, "[3]": {"system": "patients with ALS", "settings": "de la Rubia et al. 2019; cited from earlier work"}, "[4]": {"system": "rats", "settings": "rat, in vivo; cited from earlier work"}, "[5]": {"system": "GDF15, FGF21, Nf-L, inflammatory cytokines", "assay": "Nf-L, GDF15, FGF21 and cytokine detection in serum and CSF", "format": "in vivo, human", "description": "Neurofilament light chain (Nf-L) measurement in CSF and serum samples was carried out in duplicates using the Simoa NF-light Advantage (SR-X) Kit (Quanterix) according to the manufacturer's recommendations and analyzed on an Simoa SR-X instrument (Quanterix). GDF15 and FGF21 detection was carried out using ELISA kits GDF-15/MIC-1 Human ELISA (RD191135200R) and Fibroblast Growth Factor 21 Human ELISA (RD191108200R) from BioVendor according to manufacturer's recommendations. For CSF analyses of GDF15, CSF was diluted 1:2 in dilution buffer. All samples were analyzed twice in duplicates. Inflammatory Cytokine screening was carried out using the Human Cytokine Magnetic 35-plex panel (Invitrogen), detecting FGF-Basic, IL-1 beta, G-CSF, IL-10, IL-13, IL-6, IL-12, RANTES, Eotaxin, IL-17A, MIP-1 alpha, GM-CSF, MIP-1 beta, MCP-1, IL-15, EGF, IL-5, HGF, VEGF, IL-1 alpha, IFN-gamma, IL-17F, IFN-alpha, IL-9, IL-1RA, TNF-alpha, IL-3, IL-2, IL-7, IP-10, IL-2R, IL-22, MIG, IL-4, IL-8. CSF and serum samples were analyzed according to the manufacturer's recommendations and measured on a BioPlex 200 instrument (BioRad).\nThe between visit change ([visit 2]−[visit 1]) in MDS-UPDRS (total of subsections I-III; and individual subsections I, II and III) was compared between the NR and placebo groups using independent Student's t-test. In addition, the between visit change in MDS-UPDRS (total and subsections) within the NR, MRS-responder, and placebo groups was assessed by paired Student's t-test. For the 31P-MRS analyses, the change in measured metabolites between visit 1 and visit 2 was assessed in the placebo- and NR group using paired Student's t-test. In addition, the between-visit change in NAD/ATP-α was compared between the NR and placebo group by independent Student's t-test. For PET analyses, changes in network scores with treatment were evaluated for each group separately using paired Student's t-tests or permutation tests. Relationships between network values, NAD levels and MDS-UPDRS motor ratings or between treatment-related changes in these variables were evaluated using Pearson's product-moment correlations; Spearman rank-order correlation coefficients were computed for non-normal distributions of the variables. These statistical tests were performed using SPSS (SPSS Inc., Chicago, IL); results were considered significant for p≤0.05 (two-tailed). Metabolite quantification data, Nf-L; GDF15, FGF21 and cytokine data were analyzed by paired sample Wilcoxon test using GraphPad Prism v 6.07."}},
  "data": [
    {"smiles": "NC(=O)c1ccc[n+]([C@@H]2O[C@H](CO)[C@@H](O)[C@H]2O)c1", "note": "[NR, nicotinamide riboside]", "values": [
      {"measurement": "neuroprotection in mice", "setting": "[1]", "result": "neuroprotective effects"},
      {"measurement": "CTCAE Grading: Upper Respiratory infection", "setting": "[2]; 1 event, NR group", "result": "Grade 1 (1)"},
      {"measurement": "Adverse events (n): Anorexia", "setting": "[2]; human, in vivo, 4 weeks", "result": 1},
      {"measurement": "Adverse events (n): Cholelithiasis", "setting": "[2]; human, in vivo, 4 weeks", "result": 1},
      {"measurement": "Adverse events (n): Fatigue", "setting": "[2]; human, in vivo, 4 weeks", "result": 1},
      {"measurement": "Adverse events (n): Headache", "setting": "[2]; human, in vivo, 4 weeks", "result": 3},
      {"measurement": "Adverse events (n): Hematoma (leg)", "setting": "[2]; human, in vivo, 4 weeks", "result": 2},
      {"measurement": "Adverse events (n): Inguinal hernia", "setting": "[2]; human, in vivo, 4 weeks", "result": 1},
      {"measurement": "Adverse events (n): Leg Pain", "setting": "[2]; human, in vivo, 4 weeks", "result": 1},
      {"measurement": "Adverse events (n): Nausea", "setting": "[2]; human, in vivo, 4 weeks", "result": 1},
      {"measurement": "Adverse events (n): Upper Respiratory infection", "setting": "[2]; human, in vivo, 4 weeks", "result": 1},
      {"measurement": "CTCAE Grading: Anorexia", "setting": "[2]; human, in vivo, 4 weeks", "result": "Grade 1 (1)"},
      {"measurement": "CTCAE Grading: Cholelithiasis", "setting": "[2]; human, in vivo, 4 weeks", "result": "Grade 1 (1)"},
      {"measurement": "CTCAE Grading: Fatigue", "setting": "[2]; human, in vivo, 4 weeks", "result": "Grade 1 (1)"},
      {"measurement": "CTCAE Grading: Headache", "setting": "[2]; human, in vivo, 4 weeks", "result": "Grade 1 (4)"},
      {"measurement": "CTCAE Grading: Inguinal hernia", "setting": "[2]; human, in vivo, 4 weeks", "result": "Grade 1 (1)"},
      {"measurement": "CTCAE Grading: Leg Pain", "setting": "[2]; human, in vivo, 4 weeks", "result": "Grade 1 (1)"},
      {"measurement": "CTCAE Grading: Nausea", "setting": "[2]; human, in vivo, 4 weeks", "result": "Grade 1 (1)"},
      {"measurement": "Causal Relationship to Study Drug: Anorexia", "setting": "[2]; human, in vivo, 4 weeks", "result": "Unlikely (1)"},
      {"measurement": "Causal Relationship to Study Drug: Cholelithiasis", "setting": "[2]; human, in vivo, 4 weeks", "result": "Unrelated (1)"},
      {"measurement": "Causal Relationship to Study Drug: Fatigue", "setting": "[2]; human, in vivo, 4 weeks", "result": "Unlikely (1)"},
      {"measurement": "Causal Relationship to Study Drug: Hematoma (leg)", "setting": "[2]; human, in vivo, 4 weeks", "result": "Unrelated (2)"},
      {"measurement": "Causal Relationship to Study Drug: Inguinal hernia", "setting": "[2]; human, in vivo, 4 weeks", "result": "Unrelated (1)"},
      {"measurement": "Causal Relationship to Study Drug: Leg Pain", "setting": "[2]; human, in vivo, 4 weeks", "result": "Unrelated (1)"},
      {"measurement": "Causal Relationship to Study Drug: Nausea", "setting": "[2]; human, in vivo, 4 weeks", "result": "Unlikely (1)"},
      {"measurement": "Causal Relationship to Study Drug: Upper Respiratory infection", "setting": "[2]; human, in vivo, 4 weeks", "result": "Unlikely (1)"},
      {"measurement": "severity and relatedness of reported adverse events", "setting": "[2]; in vivo", "result": "minor and considered to be unrelated to NR"},
      {"measurement": "subjects reporting adverse events", "setting": "[2]; in vivo", "result": "Seven"},
      {"measurement": "clinical effect in patients with ALS", "setting": "[3]", "result": "substantial clinical improvement"},
      {"measurement": "non-lethal oral dose", "setting": "[4]", "result": "≥ 5000", "unit": "mg/kg"},
      {"measurement": "FGF21 in serum", "setting": "[5]; NR group, visit 2 vs visit 1", "result": "unchanged"},
      {"measurement": "GDF15 levels in CSF (decrease)", "setting": "[5]; NR group, visit 2 vs visit 1", "result": "not in CSF"},
      {"measurement": "GDF15 levels in serum", "setting": "[5]; NR group, visit 2 vs visit 1", "result": "mild but significant decrease"},
      {"measurement": "neurofilament light chain (Nf-L) levels in serum and CSF", "setting": "[5]; NR group, visit 2 vs visit 1", "result": "unchanged"},
      {"measurement": "levels of several inflammatory cytokines in serum and CSF", "setting": "[5]; NR group, within-group, visit 2 vs visit 1", "result": "reduced"},
      {"measurement": "fold change of serum cytokines that also decreased in placebo, compared between groups", "setting": "[5]; NR vs placebo", "result": "no significant difference"}
    ]}
  ]
}
